According to US20050187150A1, “Structure-based design and synthesis of FGF inhibitors and FGF modulator compounds” (New York University, priority 2001, published 2005):

Legend:
ERK-1 and ERK-2 = experiment: ERK-1/ERK-2 phosphorylation in BaF3 cells over-expressing FGFR1 (immunoblot); assay type: cell-based; settings: co-incubation with FGF1 50 ng/ml; heparin 10 μg/ml or sulfonated β-cyclodextrin 5 and 25 μM
[1] = tested on: BaF3 cells that stably express wild-type FGFR1; experiment: Proliferation of BaF3 cells stably expressing FGFR1 in the presence of FGF1; assay type: cell-based; settings: FGF1 50 ng/ml; sulfonated β-cyclodextrin 1, 5, 10 and 25 μM
Text: This examples describes experiments that investigate the ability of sulfonated β-cyclodextrin to function as an effective heparin agonists. In particular, the cell-based assay described in Example 2, supra, is used here to investigate the ability of sulfonated β-cyclodextrin to modulate FGF ligand-dependent activation of the FGF receptor in vivo.
The assay uses a BaF3 cell line which overexpresses FGFR1. This cell line has been previously described and is known in the art (see, e.g., Huang et al., J. Biol. Chem. 1995, 270:5065-5072). BaF3 cells are a lymphoid cell line, which are dependent on interleukin-3 (IL-3) for growth. […] Accordingly, the growth rate of such transfected cells is useful as a measurement of FGF receptor activity in vivo. Ordinarily, because BaF3 cells express only low amounts of HSPG, soluble heparin must also be present to elicit the FGF-dependent mitogenic response observed in the transfected cells.
For the experiments described here, BaF3 cells that stably express wild-type FGFR1 ([…]) were cultured according to standard methods that have been previously described (see, Huang et al., supra). […] The numbers of viable cells in each well were counted daily in duplicate. […]

FGFR1 = experiment: FGF receptor autophosphorylation in BaF3 cells over-expressing FGFR (anti-FGFR1 immunoprecipitation, phosphotyrosine immunoblot); assay type: cell-based; settings: five minutes stimulation with FGF1 50 ng/ml plus heparin 10 μg/ml or sulfonated cyclodextrin 5 or 25 μM
Method: To verify that the effect of sulfonated β-cyclodextrin observed in FIG. 15A is actually due to activation of the FGF receptor, experiments were conducted that examined the capacity of heparin and β-cyclodextrin to stimulate kinase activity of FGF receptor in living cells. See, Mohammadi et al., Science 1997, 276:955-960 for a detailed description of such experiments.
Briefly, BaF3 cells over-expressing FGFR were stimulated for five minutes with FGF1 ligand (50 ng/ml), heparin (10 μg/ml) and/or sulfonated […] 5 or 25 μM). The cells were then lysed. Their proteins were immunoprecipitated with antibodies to FGFR1, separated by SDS-polyacrylamide gel electrophoresis (PAGE), immunoblotted with antibodies to phosphotyrosine, and detected by autoradiography. […] See, the left-hand and right-hand lanes, respectively, in FIG. 15B.

FGF2-FGFR1 complexes [2] = molecular target: T1, FGF2-FGFR1 complexes (Homo sapiens, UniProt P09038+P11362); experiment: Size exclusion chromatography of purified 1:1 FGF2:FGFR1 complexes mixed with test compound (dimerization); assay type: binding; settings: for dimerization of FGF:FGFR complex (peaks in size exclusion chromatogram): compound added at 1:1:1 molar ratio FGF2:FGFR1:compound; for dimerization of FGF:FGFR complex (dimer peak D in size exclusion chromatogram): compound added at molar ratio 1:1:0.25 and 1:1:0.5 FGF2:FGFR1:compound, Superdex 200, 25 mM HEPES-NaOH pH 7.5, 150 mM NaCl
T1 construct: made in house
Text: A construct encoding an extracellular ligand binding portion of the FGFR1 polypeptide set forth in FIG. 1A (SEQ ID NO:1) was expressed in E. coli and refolded […] using established protocols, as previously described by Plotnikov et al. (Cell 2000, 101:413-424). In particular, the soluble FGFR1 polypeptide expressed by this construct, which is referred to here as D23, comprises amino acid residues 142 to 365 of SEQ ID NO:1, which correspond to the immunoglobulin (Ig)-like domains 2 and 3 (D2 and D3, respectively), which are known to confer ligand binding and specificity for the FGFR receptor. However, the D23 polypeptide is missing the Ig-like domain 1 (D1), the acid box and the linker polypeptide sequence between D3 and the transmembrane helix. The D23 polypeptide is therefore similar to a naturally occurring splice variant of FGFR1 that retains full ligand binding capacity (Johnson et al., Mol. Cell. Biol. 1990, 10:4728-4736).
When expressed in E. coli cells, the D23 polypeptide was found entirely in inclusion bodies. The polypeptide was solubilized using standard denaturing reagents and refolded in vitro. Following purification by ion exchange chromatography, the D23 polypeptide was complexed with the FGF2 ligand polypeptide whose amino acid sequence is set forth in FIG. 2A (SEQ ID NO:3) and purified by size exclusion chromatography.
To quantitate dimerization, the purified 1:1 FGF2:FGFR1 complexes were mixed at various molar ratios with SOS and analyzed by size exclusion chromatography according on SUPERDEX 200® (Amersham Pharmacia Biotech.) size exclusion column in 25 mM HEPES-NaOH buffer (pH 7.5) containing 150 mM sodium chloride.
In these experiments, two milligram aliquots of the purified FGF2-FGFR1 complex described, supra, in Example 1 were mixed with suramin and analyzed on a size exclusion column equilibrated with 25 mM HEPES-NaOH buffer (pH 7.5) containing 150 mM NaCl.

[3] = tested on: BaF3 cells that stably expressed wild-type FGFR1; experiment: Proliferation of BaF3 cells stably expressing FGFR1 in the presence of FGF2; assay type: cell-based
Text: This example describes experiments that investigated the ability of SOS to modulate FGF ligand-dependent activation of the FGF receptor in vivo. In particular, an assay is described here that uses a BaF3 cell line which overexpresses FGFR1. This cell line has been previously described and is therefore known in the art (see, e.g., Huang et al., J. Biol. Chem. 1995, 270:5065-5072).
BaF3 cells are a lymphoid cell line, which are dependent on interleukin-3 (IL-3) for growth. […] Accordingly, the growth rate of such transfected cells is useful as a measurement of FGF receptor activity in vivo. Because BaF3 cells express only low amounts of HSPG, soluble heparin must also be present to elicit the FGF-dependent mitogenic response observed in the transfected cells.
For the experiments discussed here, BaF3 cells that stably expressed wild-type FGFR1 (SEQ ID NO:1) were cultured according to standard methods that have been previously described (see, Huang et al., supra). 1×10^4 cells were seeded in triplicate wells and grown in the presence of heparin (3 μM) or, alternatively, in the presence of various concentrations (0.1, 0.5, 1, 5 and 10 μM, respectively) of SOS. The numbers of viable cells in each well were counted daily in duplicate.
Paradoxically, however, FGFR dimers promoted by suramin are signaling incompetent. That is to say, the FGF receptor is not activated in these dimers. […]

FGF2-FGFR1 complexes [4] = molecular target: T1, FGF2-FGFR1 complexes; experiment: X-ray crystallography of the dimeric FGF2-FGFR1-SOS ternary complex
Method: This example describes x-ray crystallography experiments that better characterize the molecular mechanisms by which SOS may interact with and/or stabilize dimers of FGF-FGFR complexes. In particular, this example describes the crystalization of FGF2-FGFR1 complexes with SOS and the solution of that crystal structure by analyzing x-ray diffraction data.
Crystals of dimeric FGF2-FGFR1-SOS complexes were grown by vapor diffusion at 20° C. using the hanging drop method. 2 μL of protein solution (10 mg/mL in 25 mM HEPES-NaOH (pH 7.5) and 150 mM NaCl) was mixed with an equal volume of crystallization buffer (12-16% Polyethylene glycol 5000, 0.2 M ammonium sulfate and 15% glycerol in 0.1 M HEPES-NaOH (pH 7.5)). The protein solution contained a 1:1:1 stoichiometric ratio of FGF2, and soluble FGFR1 construct described, supra, in Example 1, and SOS.
The crystal belongs to the orthorhombic space group P21 21 21 and has unit cell dimensions of a=64.2 Å, b=122.4 Å and c=219.5 Å. The crystal contains four FGF2-FGFR1-SOS complexes in the asymmetric unit with a solvent content of about 56%.
Diffraction data were collected from a flash-frozen crystal on a CCD detector at beamline X4A at the National Synchrotron Light Source, Brookhaven National Laboratory. The data were processed using DENZO and SCALEPACK (Otwinowski & Minor, Methods Enzymol. 1997, 276:307-326). […]

T1 sequence (P11362 142-365): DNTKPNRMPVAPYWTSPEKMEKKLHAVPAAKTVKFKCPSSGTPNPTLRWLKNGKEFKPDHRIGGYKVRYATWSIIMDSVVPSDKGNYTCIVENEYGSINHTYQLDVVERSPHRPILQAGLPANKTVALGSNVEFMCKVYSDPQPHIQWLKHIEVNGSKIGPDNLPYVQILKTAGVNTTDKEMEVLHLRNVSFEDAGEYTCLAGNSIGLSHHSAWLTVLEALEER
T1 sequence (P09038 134-288): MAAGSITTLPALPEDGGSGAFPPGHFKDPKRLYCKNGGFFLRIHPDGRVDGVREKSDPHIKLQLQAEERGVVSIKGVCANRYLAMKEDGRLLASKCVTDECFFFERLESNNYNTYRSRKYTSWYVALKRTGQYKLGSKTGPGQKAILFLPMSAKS

Compound	autophosphorylation of ERK-1 and ERK-2 (ERK-1 and ERK-2)	proliferation of BaF3 cells over expressing FGFR1 (daily viable cell counts) [1]	autophosphorylation of the FGF receptor (FGFR1)	dimerization of FGF:FGFR complex (peaks in size exclusion chromatogram) (FGF2-FGFR1 complexes [2])	dimerization of FGF:FGFR complex (dimer peak D in size exclusion chromatogram) (FGF2-FGFR1 complexes [2])	heparin-like or SOS-like activity (FGF ligand-dependent activation of FGF receptor, BaF3 cell growth) ([3]; BaF3 cells grown with suramin instead of heparin or SOS, contacted with FGF ligand)	proliferation of BaF3 cells over expressing FGFR1 (daily viable cell counts) ([3]; FGF2 50 ng/ml, SOS 0.1, 0.5, 1, 5 and 10 μM)	hydrogen bonds of the well ordered SOS molecule with FGF2 and both FGFR1 molecules (FGF2-FGFR1 complexes [4]; crystal structure at 2.6 Å resolution)	effect on FGF-FGFR binding affinity inferred from the crystal structure (FGF2-FGFR1 complexes [4]; interaction mimics heparin)
sulfonated β-cyclodextrin	induces autophosphorylation of ERK-1 and ERK-2	supports the FGF ligand in inducing proliferation of the BaF3 cells over expressing FGFR1 in a dose-dependent manner	results in autophosphorylation of the FGF receptor	–	–	–	–	–	–
Cc1ccc(C(=O)Nc2ccc(S(=O)(=O)O)c3cc(S(=O)(=O)O)cc(S(=O)(=O)O)c23)cc1NC(=O)c1cccc(NC(=O)Nc2cccc(C(=O)Nc3cc(C(=O)Nc4ccc(S(=O)(=O)O)c5cc(S(=O)(=O)O)cc(S(=O)(=O)O)c45)ccc3C)c2)c1 [suramin]	–	–	–	only a peak corresponding to the FGF:FGFR dimers is observed	a third peak corresponding to dimers of the FGF:FGFR complex is observed	no heparin-like or SOS-like activity was observed	–	–	–
heparin	induces autophosphorylation of ERK-1 and ERK-2	–	stimulated autophosphorylation of the FGF receptor	–	–	–	–	–	–
O=S(=O)(O)OC[C@H]1O[C@@](COS(=O)(=O)O)(O[C@H]2O[C@H](COS(=O)(=O)O)[C@@H](OS(=O)(=O)O)[C@H](OS(=O)(=O)O)[C@H]2OS(=O)(=O)O)[C@@H](OS(=O)(=O)O)[C@@H]1OS(=O)(=O)O [SOS, sucrose octasulfate]	–	–	–	only a peak corresponding to FGF:FGFR dimers is observed	a third peak corresponding to dimers of the FGF:FGFR complex is observed	–	supports FGF2 in inducing proliferation of the BaF3 cells over expressing FGFR1 in a dose-dependent manner	13	increases FGF-FGFR binding affinity
